# Test results taken from PMC9198986, “Controlling Doxorubicin Release from a Peptide Hydrogel through Fine-Tuning of Drug–Peptide Fiber Interactions” (Biomacromolecules, 2022).
# Where no end group is shown, it is not given here.
# Assays:
# [1] = Gels biodegradability: fraction of intact peptide after incubation in 50% FBS (RP-HPLC); type: in vitro ADME, bovine; settings: 14 mM hydrogel, 37 °C; for level of degradation up to 12 h: first 12 h; for susceptibility to enzymatic degradation, rank: up to 72 h
# Method: Peptide hydrogels (14 mM) were incubated in either PBS or 50% FBS ddH2O solution at 37 °C. At selected time points (2, 5, 10, 24, 48, and 72 h), the gels were disassembled by dilution to 1 mg mL^–1 in a 1% trifluoroacetic acid (TFA) water/acetonitrile (50/50 v/v) solution. Reversed phase-high-performance liquid chromatography (RP-HPLC) analyses were conducted at 25 °C on an Ultimate 3000 HPLC system (Dionex) equipped with a variable wavelength UV detector (wavelength used 210 nm) and a gradient pump. Separation was performed on a Phenomenex Jupiter 4μ Proteo column 90A° (250 × 4.66 mm) fitted with a 300 Guard Cartridge (4.3 × 10 mm). A flow rate of 1 mL min^–1 was used for all separations. The mobile phase consisted of a mixture of water: TFA(0.1%)—solvent A and acetonitrile/TFA(0.1%)—solvent B. An elution gradient of 90% solvent A/10% solvent B to 30% solvent A/70% solvent B over 45 min was used. 100 μL of sample aliquots was injected into the column using an ACC-3000 autosampler. Data were analyzed using Chromoleon 6.80 software. The peptide stability was expressed as a fraction of intact peptide present in the sample at sampling time t using the following equation [drawing 1] 1 where AUCPBS (t) and AUCFBS (t) are the intact peptide peak areas under the HPLC curves obtained at the sampling time t for hydrogels incubated with PBS and 50% FBS ddH2O solutions, respectively.
# We also examined the susceptibility of these peptide hydrogels to enzymatic degradation by incubating them in a 50 FBS/50 PBS media mixture. At the selected time points, the samples were homogenized (release buffer + remaining hydrogel), and the fraction of intact, that is, nondegraded peptide was estimated via HPLC. FBS contains a wide array of proteases and other enzymes that will degrade proteins and peptides. […] Dox release was also measured using a 50 FBS/50 PBS mixture as release media. […] From 24 h onward, similar release profiles were obtained in the presence and absence of FBS, probably due to the fact that by then most of the Dox has been released, and the supernatant release media is reaching saturation (Figure S5).
# [2] = system: 3T3 murine fibroblasts; experiment: 3T3 fibroblast viability under hydrogel inserts (PicoGreen dsDNA); type: cell-based, mouse; settings: non-loaded 14 mM hydrogel in insert above 3T3 cells; for cell viability with non-loaded hydrogels: over 48 h, PicoGreen dsDNA
# Method: 3T3 murine fibroblasts were seeded (1.5 × 10^4 cells cm^–2) in 12-well cell culture plates and 1.5 mL of DMEM supplemented with 10% FBS added per well. 400 μl of hydrogels (14 mM) with and without Dox (240 μM) were plated within 12-well cell culture plate inserts (ThinCert, Greiner Bio-One, pore size 1 μm) and placed above the cells. At selected time points, cells were retrieved from the cell culture wells, and the amount of double-stranded DNA (dsDNA) content was measured using PicoGreen dsDNA assay (Life Technologies, Carlsbad, CA, USA) following the manufacturer’s protocol.
# Finally, we confirmed that the Dox released from the hydrogels was still active by investigating its effect on 3T3 mouse fibroblasts. This was achieved by culturing the fibroblasts in 2D in cell culture wells and placing the hydrogels (loaded and non-loaded with Dox) in inserts equipped with porous membranes above the cells (see schematics in Figure 6). This experimental setup was used to avoid a direct contact between the hydrogels and the cells but still allow the drug to diffuse from the hydrogels into the cell culture media. Dox is known to affect cell proliferation and viability via DNA intercalation and inhibition of topoisomerase II.[24],[25] Therefore, at the selected time points, the effect of Dox on fibroblasts viability was evaluated by measuring the total amount of double-stranded DNA (dsDNA), which is directly proportional to the number of live cells present.
Sequence,"hydrogel degradation at later times ([1]; >24 h, RP-HPLC)",level of degradation up to 12 h ([1]; RP-HPLC),cell viability with non-loaded hydrogels [2],level of degradation ([1]; RP-HPLC),"susceptibility to enzymatic degradation, rank ([1]; RP-HPLC)","dsDNA detected after 48 h as % of the amount at t = 0 ([2]; DMEM 10% FBS, 48 h, PicoGreen) [%]","peptide degraded ([1]; after 5 h, RP-HPLC UV 210 nm, intact peak area vs PBS incubation) [%]"
FEFEFKFE [FE],more substantial,low levels of degradation,good cell viabilities,,,,
FEFKFEFK [F8],,,good cell viabilities,minimal degradation,,,
FEFKFEFKK [F8K],,,good cell viabilities,minimal degradation,least susceptible,,
FKFEFKFK [FK],,low level of degradation,some level of cytotoxicity,,,40,
KFEFKFEFKK [KF8K],,,good cell viabilities,,most susceptible,,~40
